Experimental data from patent publication US20260347399A1, “BRAIN PENETRATING PEPTIDES AND METHODS OF USE” (priority 2022, published 2026).
Each block holds one substance with its values, some of them ahead of it. Ends that are not written are not given here.

What was measured:
mouse brain [1] = assay: In vivo play-off screen with 4 CX4CYX peptides; conditions: compared to CAGALCY
Reelin = assay: Peptide-phage binding on ELISA plate; set-up: species or system human
Protocol: Reelin protein (#8546-MR-050; R&D Systems), NRP-1 b1b2 (wt and mutant) or 5% BSA was immobilized on Costar 96-Well ELISA plate (#3590, Corning Life Sciences, Tewksbury, MA, USA). The multiwell plates were coated with 20 μg/ml recombinant protein in 100 μl of PBS overnight at +4 °C, followed by blocking with 1% bovine serum albumin (BSA) in PBS overnight at +4 °C. The phage (5×10^8 pfu in 100 μl of PBS-BSA) was incubated overnight at +4 °C, followed by 6 washes with PBS containing 1% BSA and 0.1% Tween-20 (washing buffer) to remove background phages. BLT5615 OD600=0.5 containing 2 mM IPTG was used to recover the phages and determine the titer of samples.
Next, an affinity chromatography was performed to identify a receptor of the CVGTNCY (SEQ ID NO:2), and selected a receptor candidate, which is a secreted extracellular matrix protein Reelin. CVGTNCY (SEQ ID NO:2) binding to Reelin protein was tested by cell free method on ELISA plate. Recombinant human Reelin protein (Ser1221-Gln2666; 163 kDa) was used to coat the ELISA plate and the CVGTNCY (SEQ ID NO:2) peptide-phage was allowed to bind to it. After several washes, the titer of the experiment was determined to rate on the binding efficiency.
Reelin was identified from affinity chromatography proteomics data. […] The binding efficiency was evaluated based on the titer (PFU/ml) of each sample. […]

LRP-1 cluster II = target: T1, LRP-1 cluster II (Homo sapiens, UniProt Q07954); assay: Bead binding assay (FACS); conditions: 10 nM LRP-1 cluster II, biotinylated peptide on beads
T1 construct: detected by anti-human LRP-1 antibody
T1 sequence (Q07954 786-1165 limits assumed): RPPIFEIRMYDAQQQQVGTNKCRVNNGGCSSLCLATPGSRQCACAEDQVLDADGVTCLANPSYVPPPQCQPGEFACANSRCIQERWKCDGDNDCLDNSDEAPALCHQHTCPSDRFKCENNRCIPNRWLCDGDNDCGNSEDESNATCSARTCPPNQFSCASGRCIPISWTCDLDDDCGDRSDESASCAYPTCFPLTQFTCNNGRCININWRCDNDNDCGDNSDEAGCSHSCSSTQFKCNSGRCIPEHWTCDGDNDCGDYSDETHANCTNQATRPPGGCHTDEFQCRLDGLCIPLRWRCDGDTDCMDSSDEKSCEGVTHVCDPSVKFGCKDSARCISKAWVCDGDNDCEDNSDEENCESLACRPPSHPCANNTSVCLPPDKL
Protocol: (§1) Briefly, 50 μl of Myone Dynabeads were washed multiple times and incubated with 100 μl of 2 mM biotinylated peptide at room temperature for 2h. Beads were washed twice with PBS, 0.01% Tween 20-DPBS, and 0.01% PBS-BSA. The beads were then incubated overnight with 10 nM LRP-1 cluster II, or LRP-1 cluster III, and Alexa Fluor 647 anti-human LRP-1 antibody (1:200) in PBS with 0.1% BSA (FIGS. 19A-19B).
(§2) The beads were washed several times and analyzed by FACS. Samples are indicated as follows: • Negative control (−ve control): beads incubated with biotin (non-peptide), LRP-1 cluster III protein, and Alexa Fluor 647 anti-human antibody; • Positive control for the cluster II expts: beads incubated with biotinylated-Angiopep2 peptide, LRP-1 cluster II protein and Alexa Fluor 647 anti-human LRP-1 antibody (see FIG. 19A); and • Positive control for cluster III expts: beads incubated with biotinylated-RPAR peptide, Neuropilin-1 b1b2 protein, (1:200) anti-neuropilin-1 antibody, (1:200) and Alexa Fluor 647 anti-rabbit antibody (see FIG. 19B).
(§3) 10,000 events per condition were analyzed. Experient was performed in three replicates per condition and t-test compared scramble sequence (SARVISRAKLARAL (SEQ ID NO:70)) with Cerepep.

LRP-1 cluster III = target: T2, LRP-1 cluster III (Homo sapiens, UniProt Q07954); assay: Bead binding assay (FACS); conditions: 10 nM LRP-1 cluster III, biotinylated peptide on beads
T2 construct: detected by anti-human antibody
T2 sequence (Q07954 2522-2941 limits assumed): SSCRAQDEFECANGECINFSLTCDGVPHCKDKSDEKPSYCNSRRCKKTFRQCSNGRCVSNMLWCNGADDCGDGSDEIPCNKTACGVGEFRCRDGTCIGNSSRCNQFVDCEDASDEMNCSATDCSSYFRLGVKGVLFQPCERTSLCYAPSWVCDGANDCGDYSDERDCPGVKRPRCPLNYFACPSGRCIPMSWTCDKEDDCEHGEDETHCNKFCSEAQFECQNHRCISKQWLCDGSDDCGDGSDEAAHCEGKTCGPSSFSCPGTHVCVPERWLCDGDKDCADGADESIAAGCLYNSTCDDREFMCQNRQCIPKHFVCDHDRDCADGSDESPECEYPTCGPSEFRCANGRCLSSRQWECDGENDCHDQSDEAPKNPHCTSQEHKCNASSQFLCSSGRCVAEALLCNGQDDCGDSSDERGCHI
Protocol: as §1, §2, §3

mouse brain [2] = assay: Peptide-phage biodistribution after i.v. injection; format: in vivo
Protocol: For titering-based biodistribution studies, nucleotide sequences coding for peptides of interest were cloned into T7 phage genomic DNA to be expressed on the phage surface as C-terminal fusions to capsid protein. The cloning was performed using complementary oligonucleotides, the phage clones were amplified, and purified as described in (Põšnograjeva, et al., 2022). 5×10^9 pfu of peptide-phage clone was injected i.v. into male Balb/C mice or 5×10^10 pfu of phage was injected into female Sprague-Dawley rats (n=3). 60 min later, the animals were anesthetized and perfused with PBS. The tissues were collected, homogenized, and the amount of phage in tissue lysates was determined by titering using E. coli strain BLT5615.
A complete listing of peptides that were identified from Ion Torrent high throughput sequencing from bio-panning Round 5 is set forth in Table 1B.
The peptide-phage was injected i.v. and following 1 h circulation, the mice were perfused, brain and control organs were collected and phage titer in each tissue was determined. Insertless T7 phage was used as a negative control and a phage displaying BBB penetrating peptide Angiopep-2 (TFFYGGSRGKRNNFKTEEY; SEQ ID NO:97) was used for comparison. Cerepep phage achieved approximately 300-fold higher accumulation in mouse brain compared to control and Angiopep-2 phages (FIG. 2A; Peptide-phage accumulation in the brain. 5×10^9 pfu of phage was injected i.v. and following 1 h circulation mice were perfused with PBS. The amount of phage accumulated in the brain was determined by titering). To assess the brain distribution of […] (SEQ ID NO:9), the mouse brain was dissected to separate the olfactory bulbs, cerebellum, brain stem and the hemispheres before determining the titer in the tissue.
The brain selectivity of SRRVISRAKLAAAL (SEQ ID NO:9) phage following a systemic administration was studied in mice and rats by determining the titer of […] (SEQ ID NO:9) and control phage in multiple control tissues.

Neuro2A = assay: In vitro phage binding to cells; format: cell-based, mouse; conditions: 4 °C, 1 h
Protocol: (§4) To assess the binding of Cerepep phage, the cells were cultured in 24-well plates on polylysine coated glass coverslips until 80-90% confluency. The cells were incubated with Cerepep or control insertless peptide-phage at a final concentration of 5×10^7 pfu in 1 ml of DMEM+BSA (1%) at 4 °C for 1 h on a rocking platform. The wells were washed 4 times with 1 ml of DMEM+BSA (1%), the cells were lysed in 1 ml LB+NP40 and the amount of phage bound to the cells was determined by titering.
(§5) Binding of SRRVISRAKLAAAL (SEQ ID NO:9) phage to a panel of different cell lines was studied in vitro.

WT GBM = assay: In vitro phage binding to cells; format: cell-based, mouse; conditions: 4 °C, 1 h
Protocol: as §4, §5

binding to Reelin (Reelin): specific binding
Substance: CVGTNCY
representation in the brain (mouse brain [1]): highest representation in the brain

Substance: SRRVISRAKLAAAL [Cerepep, SRRVISRAKLAAAL]
interaction with LRP-1 cluster II (LRP-1 cluster II): interacts with LRP-1 cluster II
interaction with LRP-1 cluster III (LRP-1 cluster III): interacts with LRP-1 cluster II and cluster III
homing preference (mouse brain [2]; mouse, in vivo): homes preferentially to the eyes/brain/CNS
accumulation in mouse brain, fold over Angiopep-2 phage (mouse brain [2]; peptide-phage 5×10^9 pfu i.v., 1 h, vs Angiopep-2 phage): approximately 300 fold
accumulation in mouse brain, fold over control phage (mouse brain [2]; peptide-phage 5×10^9 pfu i.v., 1 h, vs insertless control phage): approximately 300 fold
accumulation in the brain, shorter versions of Pep1 (mouse brain [2]; peptide-phage 5×10^9 pfu i.v., 1 h circulation): shortest peptide still achieving a high accumulation in the brain
brain selectivity (titer in brain vs control tissues) (mouse brain [2]; peptide-phage i.v., 1 h, mice): highest accumulation in the brain and low accumulation in all other tested tissues
accumulation in brain regions and spinal cord (mouse brain [2]; peptide-phage i.v., 1 h, olfactory bulbs, cerebellum, brain stem, hemispheres, spinal cord, compared to control phage): high accumulation in all tested brain regions as well as in the spinal cord
binding of peptide-phage, fold over insertless phage (Neuro2A): at least 50 fold
binding of peptide-phage, fold over insertless phage (WT GBM): at least 50 fold
